{"source": "ChEMBL document CHEMBL1133210", "about": "“Synthesis of tetrakis(multifluoro-4-pyridyl)porphin derivatives as acetylcholinesterase inhibitors” (Bioorg Med Chem Lett, 2000)", "key": {"Acetylcholinesterase": {"target": "Acetylcholinesterase (Electrophorus electricus, UniProt O42275)", "sequence (O42275 whole entry)": "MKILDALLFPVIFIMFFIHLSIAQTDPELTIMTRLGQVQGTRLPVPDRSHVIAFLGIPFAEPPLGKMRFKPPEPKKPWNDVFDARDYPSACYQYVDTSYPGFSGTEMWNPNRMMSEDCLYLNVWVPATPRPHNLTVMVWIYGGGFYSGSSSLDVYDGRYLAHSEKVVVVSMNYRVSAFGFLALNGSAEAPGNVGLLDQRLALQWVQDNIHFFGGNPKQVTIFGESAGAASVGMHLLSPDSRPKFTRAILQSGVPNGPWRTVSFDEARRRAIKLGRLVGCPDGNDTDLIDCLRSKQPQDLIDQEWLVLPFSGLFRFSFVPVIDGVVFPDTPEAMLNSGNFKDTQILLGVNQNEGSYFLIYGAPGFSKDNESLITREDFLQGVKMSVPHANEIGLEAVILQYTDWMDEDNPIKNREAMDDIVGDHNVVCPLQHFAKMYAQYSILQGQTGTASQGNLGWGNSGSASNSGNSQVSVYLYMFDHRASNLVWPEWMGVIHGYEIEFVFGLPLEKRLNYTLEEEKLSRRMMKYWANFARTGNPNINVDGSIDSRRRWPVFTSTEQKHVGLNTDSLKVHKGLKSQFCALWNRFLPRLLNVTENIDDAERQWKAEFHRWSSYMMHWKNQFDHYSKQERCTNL", "experiment": "Inhibition constant (Ki) against electric eel Acetylcholinesterase as Km/Vmax versus inhibitor concentration replot"}, "Gallus gallus": {"test_system": "Gallus gallus", "experiment": "Compound was tested in vivo for antiangiogenic activity (10 microg dose/ egg) on chorioallantoic membrane of growing chick embryos", "type": "functional"}}, "note": "pKi: −log10 of the molar value."}
{"compound": "Fc1cccc(F)c1-c1c2nc(c(-c3c(F)cccc3F)c3ccc([nH]3)c(-c3c(F)cccc3F)c3ccc([nH]3)c(-c3c(F)cccc3F)c3nc1C=C3)C=C2", "values": [{"measurement": "pKi", "setting": "Acetylcholinesterase", "result": 8.30}]}
{"compound": "Fc1ccccc1-c1c2nc(c(-c3ccccc3F)c3ccc([nH]3)c(-c3ccccc3F)c3ccc([nH]3)c(-c3ccccc3F)c3nc1C=C3)C=C2", "values": [{"measurement": "pKi", "setting": "Acetylcholinesterase", "result": 4.29}]}
{"compound": "Oc1cccc(-c2c3nc(c(-c4cccc(O)c4)c4ccc([nH]4)c(-c4cccc(O)c4)c4ccc([nH]4)c(-c4cccc(O)c4)c4nc2C=C4)C=C3)c1", "values": [{"measurement": "pKi", "setting": "Acetylcholinesterase", "result": 4.53}]}
{"compound": "Fc1ccc(-c2c3nc(c(-c4ccc(F)cc4F)c4ccc([nH]4)c(-c4ccc(F)cc4F)c4ccc([nH]4)c(-c4ccc(F)cc4F)c4nc2C=C4)C=C3)c(F)c1", "values": [{"measurement": "pKi", "setting": "Acetylcholinesterase", "result": 7.92}]}
{"compound": "Fc1nc(F)c(F)c(-c2c3nc(c(-c4c(F)c(F)nc(F)c4F)c4ccc([nH]4)c(-c4c(F)c(F)nc(F)c4F)c4ccc([nH]4)c(-c4c(F)c(F)nc(F)c4F)c4nc2C=C4)C=C3)c1F", "values": [{"measurement": "pKi", "setting": "Acetylcholinesterase", "result": 5.14}]}
{"compound": "Fc1cnc(F)c(F)c1-c1c2nc(c(-c3c(F)cnc(F)c3F)c3ccc([nH]3)c(-c3c(F)cnc(F)c3F)c3ccc([nH]3)c(-c3c(F)cnc(F)c3F)c3nc1C=C3)C=C2", "values": [{"measurement": "pKi", "setting": "Acetylcholinesterase", "result": 5.55}]}
{"compound": "Oc1ccccc1-c1c2nc(c(-c3ccccc3O)c3ccc([nH]3)c(-c3ccccc3O)c3ccc([nH]3)c(-c3ccccc3O)c3nc1C=C3)C=C2", "values": [{"measurement": "pKi", "setting": "Acetylcholinesterase", "result": 4.74}]}
{"compound": "Fc1cccc(-c2c3nc(c(-c4cccc(F)c4)c4ccc([nH]4)c(-c4cccc(F)c4)c4ccc([nH]4)c(-c4cccc(F)c4)c4nc2C=C4)C=C3)c1", "values": [{"measurement": "pKi", "setting": "Acetylcholinesterase", "result": 5.01}]}
{"compound": "Oc1ccc(O)c(-c2c3nc(c(-c4cc(O)ccc4O)c4ccc([nH]4)c(-c4cc(O)ccc4O)c4ccc([nH]4)c(-c4cc(O)ccc4O)c4nc2C=C4)C=C3)c1", "values": [{"measurement": "pKi", "setting": "Acetylcholinesterase", "result": 5.60}]}
{"compound": "C[n+]1ccc(-c2c3nc(c(-c4cc[n+](C)cc4F)c4ccc([nH]4)c(-c4cc[n+](C)cc4F)c4ccc([nH]4)c(-c4cc[n+](C)cc4F)c4nc2C=C4)C=C3)c(F)c1.Cc1ccc(S(=O)(=O)[O-])cc1.Cc1ccc(S(=O)(=O)[O-])cc1.Cc1ccc(S(=O)(=O)[O-])cc1.Cc1ccc(S(=O)(=O)[O-])cc1", "values": [{"measurement": "pKi", "setting": "Acetylcholinesterase", "result": 5.51}, {"measurement": "Inhibition", "setting": "Gallus gallus", "result": 60, "unit": "%"}]}
{"compound": "Fc1cnccc1-c1c2nc(c(-c3ccncc3F)c3ccc([nH]3)c(-c3ccncc3F)c3ccc([nH]3)c(-c3ccncc3F)c3nc1C=C3)C=C2", "values": [{"measurement": "pKi", "setting": "Acetylcholinesterase", "result": 5.29}]}
